Target: T1, human κ opioid receptors (Homo sapiens, UniProt P41145)
T1 construct: host or cells: CHO cells
Assay: Opioid receptor function test (Lance Ultra cAMP kit, agonist activity)
Assay type: cell-based
Conditions: CHO cells expressing human κ opioid receptors, 10 μM forskolin, 30 minutes
In short: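 CHO cells expressing human κ opioid receptor incubated 30 min with test compound (10^−14 to 10^−7 M) and 10 μM forskolin in HSS/5 mM HEPES pH 7.4 with 0.5 mM IBMX and 0.1% SA. cAMP measured by TR-FRET (Lance Ultra) 1 h after detection reagent addition.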

T1 sequence (P41145 whole entry): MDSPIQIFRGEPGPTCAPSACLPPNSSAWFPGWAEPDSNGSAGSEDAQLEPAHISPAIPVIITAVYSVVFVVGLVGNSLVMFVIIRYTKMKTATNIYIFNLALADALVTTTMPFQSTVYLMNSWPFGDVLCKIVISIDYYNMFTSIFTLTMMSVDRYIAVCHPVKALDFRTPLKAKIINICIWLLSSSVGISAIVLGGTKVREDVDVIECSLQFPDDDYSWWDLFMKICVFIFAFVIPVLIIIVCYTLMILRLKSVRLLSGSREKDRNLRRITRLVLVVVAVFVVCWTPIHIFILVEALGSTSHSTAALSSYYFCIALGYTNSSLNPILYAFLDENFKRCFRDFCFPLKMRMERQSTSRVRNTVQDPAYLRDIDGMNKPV

SMILES	EC50 [nM]
N#Cc1cnn(CCN2CC[C@]34CCN(CC5CC5)[C@H](Cc5ccc(O)cc53)[C@]4(O)CC2)c1 [Example 189, 1-(2-((5aS,6R,11bS)-14-(cyclopropylmethyl)-5a,10-dihydroxy-1,2,5,5a,6,7-hexahydro-6,11b-(epiminoethano)naphtho[1,2-d]azepin-3(4H)-yl)ethyl)-1H-pyrazole-4-carbonitrile]	0.39
O=C(CCc1ccccn1)N1CC[C@]23CCN(CC4CC4)[C@H](Cc4ccc(O)cc42)[C@]3(O)CC1 [Example 190, 1-((5aS,6R,11bR)-14-(cyclopropylmethyl)-5a,10-dihydroxy-1,2,5,5a,6,7-hexahydro-6,11b-(epiminoethano)naphtho[1,2-d]azepin-3(4H)-yl)-3-(pyridin-2-yl)propan-1-one]	0.32
CCc1cc(CC(=O)N2CC[C@]34CCN(CC5CC5)[C@H](Cc5ccc(O)cc53)[C@]4(O)CC2)no1 [Example 191, 1-((5aS,6R,11bR)-14-(cyclopropylmethyl)-5a,10-dihydroxy-1,2,5,5a,6,7-hexahydro-6,11b-(epiminoethano)naphtho[1,2-d]azepin-3(4H)-yl)-2-(5-ethylisoxazol-3-yl)ethan-1-one]	0.48
CCc1cnn(CCN2CC[C@]34CCN(CC5CC5)[C@H](Cc5ccc(O)cc53)[C@]4(O)CC2)c1 [Example 193, (5aS,6R,11bS)-14-(cyclopropylmethyl)-3-(2-(4-ethyl-1H-pyrazol-1-yl)ethyl)-2,3,4,5,6,7-hexahydro-6,11b-(epiminoethano)naphtho[1,2-d]azepine-5a,10(1H)-diol]	0.035
CC(C)c1cnn(CCN2CC[C@]34CCN(CC5CC5)[C@H](Cc5ccc(O)cc53)[C@]4(O)CC2)c1 [Example 195, (5aS,6R,11bS)-14-(cyclopropylmethyl)-3-(2-(4-isopropyl-1H-pyrazol-1-yl)ethyl)-2,3,4,5,6,7-hexahydro-6,11b-(epiminoethano)naphtho[1,2-d]azepine-5a,10(1H)-diol]	0.023
CN(C)CC(=O)N1CC[C@]23CCN(CC4CC4)[C@H](Cc4ccc(O)cc42)[C@]3(O)CC1 [Example 198, 1-((5aS,6R,11bR)-14-(cyclopropylmethyl)-5a,10-dihydroxy-1,2,5,5a,6,7-hexahydro-6,11b-(epiminoethano)naphtho[1,2-d]azepin-3(4H)-yl)-2-(dimethylamino)ethan-1-one]	0.59
Oc1ccc2c(c1)[C@@]13CCN(CCc4ccsn4)CC[C@@]1(O)[C@@H](C2)N(CC1CC1)CC3 [Example 209, (5aS,6R,11bS)-14-(cyclopropylmethyl)-3-(2-(isothiazol-3-yl)ethyl)-2,3,4,5,6,7-hexahydro-6,11b-(epiminoethano)naphtho[1,2-d]azepine-5a,10(1H)-diol]	0.05
O=C(CCc1nccs1)N1CC[C@]23CCN(CC4CC4)[C@H](Cc4ccc(O)cc42)[C@]3(O)CC1 [Example 210, 1-((5aS,6R,11bR)-14-(cyclopropylmethyl)-5a,10-dihydroxy-1,2,5,5a,6,7-hexahydro-6,11b-(epiminoethano)naphtho[1,2-d]azepin-3(4H)-yl)-3-(thiazol-2-yl)propan-1-one]	0.72
O=C(Cn1nccc1O)N1CC[C@]23CCN(CC4CC4)[C@H](Cc4ccc(O)cc42)[C@]3(O)CC1 [Example 214, 1-((5aS,6R,11bR)-14-(cyclopropylmethyl)-5a,10-dihydroxy-1,2,5,5a,6,7-hexahydro-6,11b-(epiminoethano)naphtho[1,2-d]azepin-3(4H)-yl)-2-(5-hydroxy-1H-pyrazol-1-yl)ethan-1-one]	0.13
Cc1cc(CCC(=O)N2CC[C@]34CCN(CC5CC5)[C@H](Cc5ccc(O)cc53)[C@]4(O)CC2)ns1 [Example 217, 1-((5aS,6R,11bR)-14-(cyclopropylmethyl)-5a,10-dihydroxy-1,2,5,5a,6,7-hexahydro-6,11b-(epiminoethano)naphtho[1,2-d]azepin-3(4H)-yl)-3-(5-methylisothiazol-3-yl)propan-1-one]	0.18
Cc1cnn(CCN2CC[C@]34CCN(CC5CC5(F)F)[C@H](Cc5ccc(O)cc53)[C@]4(O)CC2)c1 (stereo partly drawn) [Example 218, (5aS,6R,11bS)-14-((2,2-difluorocyclopropyl)methyl)-3-(2-(4-methyl-1H-pyrazol-1-yl)ethyl)-2,3,4,5,6,7-hexahydro-6,11b-(epiminoethano)naphtho[1,2-d]azepine-5a,10(1H)-diol]	0.16
Cc1cnn(CCN2CC[C@]34CCN(C[C@@H]5C[C@@H]5F)[C@H](Cc5ccc(O)cc53)[C@]4(O)CC2)c1 [Example 219, (5aS,6R,11bS)-14-(((1S,2S)-2-fluorocyclopropyl)methyl)-3-(2-(4-methyl-1H-pyrazol-1-yl)ethyl)-2,3,4,5,6,7-hexahydro-6,11b-(epiminoethano)naphtho[1,2-d]azepine-5a,10(1H)-diol]	0.23
Cc1cnn(CCC(=O)N2CC[C@]34CCN(CC5CC5)[C@H](Cc5ccc(O)cc53)[C@]4(O)CC2)c1 [Example 220, 1-((5aS,6R,11bR)-14-(cyclopropylmethyl)-5a,10-dihydroxy-1,2,5,5a,6,7-hexahydro-6,11b-(epiminoethano)naphtho[1,2-d]azepin-3(4H)-yl)-3-(4-methyl-1H-pyrazol-1-yl)propan-1-one]	0.26
Cc1cnn(CCN2CC[C@]34CCN(CC5(C)CC5)[C@H](Cc5ccc(O)cc53)[C@]4(O)CC2)c1 [Example 221, (5aS,6R,11bS)-3-(2-(4-methyl-1H-pyrazol-1-yl)ethyl)-14-((1-methylcyclopropyl)methyl)-2,3,4,5,6,7-hexahydro-6,11b-(epiminoethano)naphtho[1,2-d]azepine-5a,10(1H)-diol]	0.034
Cc1cnn(CCN2CC[C@]34CCN(CC5(O)CC5)[C@H](Cc5ccc(O)cc53)[C@]4(O)CC2)c1 [Example 225, (5aS,6R,11bS)-14-((1-hydroxycyclopropyl)methyl)-3-(2-(4-methyl-1H-pyrazol-1-yl)ethyl)-2,3,4,5,6,7-hexahydro-6,11b-(epiminoethano)naphtho[1,2-d]azepine-5a,10(1H)-diol]	0.11
Cc1cnn(CCN2CC[C@]34CCN(CC5(F)CC5)[C@H](Cc5ccc(O)cc53)[C@]4(O)CC2)c1 [Example 226, (5aS,6R,11bS)-14-((1-fluorocyclopropyl)methyl)-3-(2-(4-methyl-1H-pyrazol-1-yl)ethyl)-2,3,4,5,6,7-hexahydro-6,11b-(epiminoethano)naphtho[1,2-d]azepine-5a,10(1H)-diol]	0.017
Cc1cnn(CCCN2CC[C@]34CCN(CC5CC5)[C@H](Cc5ccc(O)cc53)[C@]4(O)CC2)c1 [Example 230, (5aS,6R,11bS)-14-(cyclopropylmethyl)-3-(3-(4-methyl-1H-pyrazol-1-yl)propyl)-2,3,4,5,6,7-hexahydro-6,11b-(epiminoethano)naphtho[1,2-d]azepine-5a,10(1H)-diol]	0.066
Cc1cnn(C[C@H](CO)N2CC[C@]34CCN(CC5CC5)[C@H](Cc5ccc(O)cc53)[C@]4(O)CC2)c1 [Example 232, (5aS,6R,11bS)-14-(cyclopropylmethyl)-3-((R)-1-hydroxy-3-(4-methyl-1H-pyrazol-1-yl)propan-2-yl)-2,3,4,5,6,7-hexahydro-6,11b-(epiminoethano)naphtho[1,2-d]azepine-5a,10(1H)-diol]	0.17
Cc1cnn(C[C@@H](CO)N2CC[C@]34CCN(CC5CC5)[C@H](Cc5ccc(O)cc53)[C@]4(O)CC2)c1 [Example 234, (5aS,6R,11bS)-14-(cyclopropylmethyl)-3-((S)-1-hydroxy-3-(4-methyl-1H-pyrazol-1-yl)propan-2-yl)-2,3,4,5,6,7-hexahydro-6,11b-(epiminoethano)naphtho[1,2-d]azepine-5a,10(1H)-diol]	0.087
Cc1cnn([C@H]2CC[C@@H](N3CC[C@]45CCN(CC6CC6)[C@H](Cc6ccc(O)cc64)[C@]5(O)CC3)C2)c1 [Example 236, (5aS,6R,11bS)-14-(cyclopropylmethyl)-3-((1R,3S)-3-(4-methyl-1H-pyrazol-1-yl)cyclopentyl)-2,3,4,5,6,7-hexahydro-6,11b-(epiminoethano)naphtho[1,2-d]azepine-5a,10(1H)-diol]	0.012
Cc1cnn(CCN2CC[C@]34CCN(CC5CC5)[C@H](Cc5ccc(OC(=O)C(C)(C)C)cc53)[C@]4(O)CC2)c1 [Example 238, (5aS,6R,11bS)-14-(cyclopropylmethyl)-5a-hydroxy-3-(2-(4-methyl-1H-pyrazol-1-yl)ethyl)-1,2,3,4,5,5a,6,7-octahydro-6,11b-(epiminoethano)naphtho[1,2-d]azepin-10-yl pivalate]	0.45
Cc1cnn(CCN2CC[C@]34CCN(CC5CC5)[C@H](Cc5ccc(O[C@@H]6O[C@H](C(=O)O)[C@@H](O)C(O)[C@H]6O)cc53)[C@]4(O)CC2)c1 (stereo partly drawn) [Example 246, (2S,3S,5R,6S)-6-(((5aS,6R,11bS)-14-(cyclopropylmethyl)-5a-hydroxy-3-(2-(4-methyl-1H-pyrazol-1-yl)ethyl)-1,2,3,4,5,5a,6,7-octahydro-6,11b-(epiminoethano)naphtho[1,2-d]azepin-10-yl)oxy)-3,4,5-trihydroxytetrahydro-2H-pyran-2-carboxylic acid]	2.6
NC(=O)c1ccc2c(c1)[C@@]13CCN(C(=O)CCn4cc(C(F)(F)F)cn4)CC[C@@]1(O)[C@@H](C2)N(CC1CC1)CC3 [Example 264, (5aS,6R,11bR)-14-(cyclopropylmethyl)-5a-hydroxy-3-(3-(4-(trifluoromethyl)-1H-pyrazol-1-yl)propanoyl)-1,2,3,4,5,5a,6,7-octahydro-6,11b-(epiminoethano)naphtho[1,2-d]azepine-10-carboxamide]	0.29
NC(=O)c1ccc2c(c1)[C@@]13CCN(C(=O)Cc4n[nH]c5ccccc45)CC[C@@]1(O)[C@@H](C2)N(CC1CC1)CC3 [Example 265, (5aS,6R,11bR)-3-(2-(1H-indazol-3-yl)acetyl)-14-(cyclopropylmethyl)-5a-hydroxy-1,2,3,4,5,5a,6,7-octahydro-6,11b-(epiminoethano)naphtho[1,2-d]azepine-10-carboxamide]	0.12

Reference: US20230087342A1, “AZEPANE DERIVATIVE” (Nippon Chemiphar Co., Ltd., priority 2019, published 2023)
